Read-outs that look alike come from different tables or passages of the source.
Columns and labels:
[1] = target: T1, SARS-CoV-1 MPro (SARS-CoV-1 major protease) (Severe acute respiratory syndrome-related coronavirus, UniProt P0C6X7); assay: biochemical
T1 construct: gene rep

[2] = target: T2, MERS MPro (MERS-CoV MPro, MERS major protease) (Betacoronavirus England 1, UniProt K9N7C7); assay: biochemical
T2 construct: gene rep

[3] = target: T3, SARS-CoV-2 MPro (main protease, 3CL protease, Nsp5) (Severe acute respiratory syndrome coronavirus 2, UniProt P0DTD1); assay: biochemical; parameters: fluorogenic NSP7 peptide substrate cleavage, concentration-response inhibition of MPro
T3 construct: gene rep

[4] = target: T3, SARS-CoV-2 MPro (main protease, 3CL protease, Nsp5); parameters: fluorogenic NSP7 peptide substrate cleavage, concentration-response inhibition of MPro; conditions: read-out: IC50 [µM] (ACN); compound in acetonitrile; inhibitor

T2 sequence (K9N7C7 3248-3553 limits assumed): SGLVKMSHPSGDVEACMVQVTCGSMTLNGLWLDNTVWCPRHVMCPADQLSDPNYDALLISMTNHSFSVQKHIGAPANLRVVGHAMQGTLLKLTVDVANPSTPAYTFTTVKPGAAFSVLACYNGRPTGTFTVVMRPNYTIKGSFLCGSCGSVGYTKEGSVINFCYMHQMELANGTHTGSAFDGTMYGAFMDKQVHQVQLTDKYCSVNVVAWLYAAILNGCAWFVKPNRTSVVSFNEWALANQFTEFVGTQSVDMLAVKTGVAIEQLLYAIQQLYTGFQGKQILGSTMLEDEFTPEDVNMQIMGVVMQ

Row | SMILES | IC50 [3] | other results
1 | O=Cc1ncc(Br)cc1OCc1ccc(Cl)c([N+](=O)[O-])c1 ['7021] | – | IC50 [1]: 8 µM; IC50 [2]: 50 µM
2 | COc1cc(C=O)c(OS(=O)(=O)CC2CCCCC2)cc1OC [ZINC271072260] | 115 µM | –
3 | Cc1noc(C)c1CCCNc1nc(-c2ccncc2)nc2ccccc12 [ZINC301553312] | 122 µM | –
4 | CC1CN(c2ncnc3sc4ccccc4c23)CC(=O)N1C (stereo not shown) [ZINC336912805] | – | IC50 ([3]; read-out: IC50 [µM] (DMSO), compound in DMSO, inhibitor): 250 µM; IC50 [4]: 177 µM
5 | COC(=O)c1cc(C#N)c(=O)n(Cc2cccc(F)c2Cl)c1 [ZINC338540162] | 281 µM | –
6 | O=C(Cc1cccnc1)N(Cc1ccccn1)c1ccc(Cl)cc1 [ZINC346371112] | 214 µM | –
7 | O=c1cc(CN2CC(CO)c3ccccc32)nc2ccccn12 (stereo not shown) [ZINC433294115] | 97 µM | –
8 | CC1CN(C(=O)CCn2cc(Br)ccc2=O)Cc2ccccc2O1 (stereo not shown) [ZINC553840273] | 200 µM | –

Reference: doi:10.1101/2022.07.05.498881v1 (biorxiv, 2022)
